Laboratory results as given in the supplement of paper PMC12317010.
Counter-ions that a name gives are not always drawn.

Test: collision cross section in nitrogen (drift tube, single-field); higher = larger gas-phase ion size
[1] = ion source: APCI, ion mode: Positive, ion type: [M]+ (permanent cation)
[2] = ion source: ESI, ion mode: Positive, ion type: [M]+ (permanent cation)
[3] = ion type: [M-H], ion source: ESI, ion mode: Negative
[4] = ion type: [M+H], ion source: APCI, ion mode: Positive
[5] = ion type: [M+H], ion source: ESI, ion mode: Positive
[6] = ion type: [M+Na], ion source: ESI, ion mode: Positive
[7] = ion type: [M+], ion source: APCI, ion mode: Positive
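Note: chemical standards at 10 µM analysed by drift tube IMS-QTOF MS in about 3.95 torr nitrogen, mean of duplicate injections differing ≤1%, mass error below 10 ppm.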

## CCCCCCCCCCCC[N+](C)(C)Cc1ccccc1 [Benzalkonium chloride C12 (BAC C12)]
[1]
  collision cross section in nitrogen: 193 Å²
[2]
  collision cross section in nitrogen: 193.9 Å²

## O=C(NC(=O)c1c(F)cccc1F)Nc1ccc(Oc2ccc(C(F)(F)F)cc2Cl)cc1F [Flufenoxuron]
[3]
  collision cross section in nitrogen: 215.8 Å²

## CCOC(=O)O[C@H](C)OC(=O)c1ccc2c(c1)cc(C(=O)NC1CCN(C(C)C)CC1)n2Cc1cc(-c2ccc(Cl)s2)on1 [AVE6324]
[4]
  collision cross section in nitrogen: 268 Å²
[5]
  collision cross section in nitrogen: 267.7 Å²
[6]
  collision cross section in nitrogen: 276.4 Å²
[3]
  collision cross section in nitrogen: 269.8 Å²

## CCCCCCC(C)Nc1ccc(Nc2ccccc2)cc1 (stereo not drawn) [N-(1-Methylheptyl)-N'-phenyl-1,4-benzenediamine]
[6]
  collision cross section in nitrogen: 190 Å²

## CC(C)(C)c1ccc(O)cc1 [4-(1,1-Dimethylethyl)phenol]
[3]
  collision cross section in nitrogen: 139.5 Å²

## CCCCCCCCCCCCCCCCCC(=O)OCC(O)CO (stereo not drawn) [Glycerol 1-monostearate]
[6]
  collision cross section in nitrogen: 201.2 Å²

## Nc1cc([N+](=O)[O-])ccc1Cl [2-Chloro-5-nitroaniline]
[3]
  collision cross section in nitrogen: 125.5 Å²

## CCCCCCCCCCCCCC[N+](C)(C)C [Myristyltrimethylammonium chloride]
[1]
  collision cross section in nitrogen: 185.2 Å²
[2]
  collision cross section in nitrogen: 185.7 Å²

## Cc1ncc(C[n+]2csc(CCO)c2C)c(N)n1 [Thiamine nitrate]
[1]
  collision cross section in nitrogen: 161.5 Å²

## C=CC(C)(CCC=C(C)C)OC(C)=O (stereo not drawn) [Linalyl acetate]
[3]
  collision cross section in nitrogen: 152 Å²

## C=C(C)C(=O)OCCOP(=O)(O)OCCOC(=O)C(=C)C [Bis(methacryloyloxyethyl) hydrogen phosphate]
[6]
  collision cross section in nitrogen: 169.5 Å²

## Nc1ccc(N=Nc2ccccc2)cc1 [C.I. Solvent Yellow 1]
[4]
  collision cross section in nitrogen: 146.1 Å²
[5]
  collision cross section in nitrogen: 146.9 Å²
[3]
  collision cross section in nitrogen: 145.4 Å²

## COc1ccc(C(=O)c2ccccc2)c(O)c1 [2-Hydroxy-4-methoxybenzophenone]
[4]
  collision cross section in nitrogen: 147.3 Å²
[3]
  collision cross section in nitrogen: 152.9 Å²

## CNP(=O)(OC)Oc1ccc(C(C)(C)C)cc1Cl (stereo not drawn) [Crufomate]
[4]
  collision cross section in nitrogen: 165.2 Å²
[5]
  collision cross section in nitrogen: 165 Å²
[6]
  collision cross section in nitrogen: 176.3 Å²

## OCCN(CCO)c1ccccc1 [N-Phenyl diethanolamine]
[4]
  collision cross section in nitrogen: 137.7 Å²
[5]
  collision cross section in nitrogen: 137.9 Å²

## COc1cc(O)c(C(=O)c2ccccc2)cc1S(=O)(=O)O [Sulisobenzone hydrate]
[3]
  collision cross section in nitrogen: 167.7 Å²

## CCCCCOC(=O)c1ccccc1C(=O)OCCCCC [Dipentyl phthalate]
[6]
  collision cross section in nitrogen: 193.4 Å²

## COc1cccc2c1cc([N+](=O)[O-])c1c(C(=O)O)cc3c(c12)OCO3 [Sodium aristolochate-I]
[6]
  collision cross section in nitrogen: 185.6 Å²

## Oc1ccc2ccc3cccc4ccc1c2c34 [1-Hydroxypyrene]
[7]
  collision cross section in nitrogen: 141.9 Å²
[3]
  collision cross section in nitrogen: 146.2 Å²

## CCOC(=O)CC(O)(CC(=O)OCC)C(=O)OCC [Triethyl citrate]
[6]
  collision cross section in nitrogen: 169.1 Å²

## O=C(O)CNc1ccccc1 [Potassium anilinoacetate]
[3]
  collision cross section in nitrogen: 134.6 Å²

## Cc1ccc([N+](=O)[O-])cc1N=Nc1c(O)c(C(=O)Nc2ccccc2)cc2ccccc12 [C.I. Pigment Red 22]
[3]
  collision cross section in nitrogen: 207 Å²

## COC(=O)C1(O)c2ccccc2-c2ccccc21 [Methyl 9-hydroxy-9H-fluorene-9-carboxylate]
[3]
  collision cross section in nitrogen: 150.1 Å²

## CCCCOCCOC(=O)COc1cc(Cl)c(Cl)cc1Cl [2,4,5-T-butotyl]
[6]
  collision cross section in nitrogen: 184.2 Å²

## Nc1nc(N)c2nc(-c3ccccc3)c(N)nc2n1 [Triamterene]
[4]
  collision cross section in nitrogen: 158.4 Å²
[5]
  collision cross section in nitrogen: 158.3 Å²
[6]
  collision cross section in nitrogen: 173 Å²
[7]
  collision cross section in nitrogen: 155 Å²
[3]
  collision cross section in nitrogen: 157.7 Å²

## CCCCCCCCCCCCCCCCOS(=O)(=O)O [Sodium hexyldecyl sulfate]
[3]
  collision cross section in nitrogen: 181.3 Å²

## [O-][Cl+2]([O-])O [Potassium chlorate]
[3]
  collision cross section in nitrogen: 104 Å²
